Laboratory results taken from PubChem BioAssay (NCI).
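All cell lines were grown in 96-well plates and treated with compound for 48 hours. TGI: total growth inhibition.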

What follows are compounds tested on SK-MEL-2 melanoma (assay: NCI-60 cell line screen, 48 h).
`CC1CC(N2CCOCC2)=Nc2ccccc2N1C` (stereo not drawn) gave a TGI of over 100 µM. `CCOC1C=CC(=O)C(CO)O1` (stereo not drawn) was tested, and the TGI was 37.1 µM. For `CC(C)C(Br)CCC1=CCC(Br)(Br)C1` (stereo not drawn), the TGI was 19.3 µM. `Cc1c2cccc-2c2cc(O)c3ccccc3c2n1-c1ccc(N(C)C)cc1` gave a TGI of 31.4 µM. Work on `O=CC(I)=C(c1ccccc1)c1ccccc1` yielded a TGI of 33.4 µM. In the case of `c1c[nH]c(-c2cccc3nsnc23)c1`, the TGI is reported as over 100 µM. With `Cn1c2ccccc2c2ccc3c(c21)C(=O)c1ccc2c4ccccc4n(C)c2c1C3=O` the TGI was over 100 µM. `COc1ccc(C)cc1N1C(=O)C2ON(Cc3ccc(CC(N)=O)cc3)C(c3c4ccccc4c(Cl)c4ccccc34)C2C1=O` (stereo not drawn) was tested, and the TGI was 44.5 µM. `NS(=O)(=O)c1nnc(NC(=O)N(c2ccccc2)c2ccccc2)s1` showed a TGI of 89.1 µM. `COC(=O)c1ccccc1C1CN=NC12Cc1c(ccc(C)c1C)C2=O` (stereo not drawn) showed a TGI of over 100 µM. In the case of `CN(C)CCN(c1ccccn1)c1ccccn1`, the TGI is reported as over 100 µM. For `O=C(O)c1nc2ccc(C(F)(F)F)cc2[nH]c1=O`, the TGI was over 100 µM. `CN(CCN1CCCC1)C1CCc2cc(Cl)c(Cl)cc2C1` (stereo not drawn) was tested, and the TGI was 35.2 µM. Compound `COC(=O)/C=C(\C)CC/C=C(\C)CCC1OC1(C)C` (stereo not drawn) has a TGI of 21.2 µM. `CC(C)NC(=O)OCc1c(COC(=O)NC(C)C)n(C)c2c1ccc1sccc12` gave a TGI of 36.2 µM. For `O=C(CC(NC(=O)C(F)(F)F)C(=O)O)OCc1ccccc1` (stereo not drawn), the TGI was over 100 µM. Work on `COc1cccc(C2c3cc4c(cc3OC(O)C2C)OCO4)c1OC` (stereo not drawn) yielded a TGI of 25.6 µM.

Each compound was assayed on SW-620 colon (assay: NCI-60 cell line screen, 48 h).
`O=C(ON=C1c2ccccc2C(Br)C(Br)c2ccccc21)c1ccccc1` (stereo not drawn) showed a TGI of 28.6 µM. With `CC(=O)c1ccc(Oc2c3ccccc3nc3ccccc23)cc1` the TGI was 20.5 µM. Compound `C[n+]1cc2cc(O)c(O)cc2c2ccc3cc(O)c(O)cc3c21` has a TGI of over 100 µM. `COc1ccc2c(c1)c1c(n2CCN2CCCCC2)-c2cccc(OC)c2CC1` gave a TGI of 42.5 µM. `COc1ccc2nc(NC(=O)/C(C#N)=C/c3ccccc3)sc2c1` gave a TGI of over 100 µM. `Cc1c(C)n(-c2ccccc2)c2nc(S(C)=O)nc(S(C)=O)c12` (stereo not drawn) gave a TGI of 3.86 µM. For `CC1(C)CC(=O)C2=C(C1)C(c1ccccc1Cl)C1C(=O)CC(C)(C)CC1(O)O2` (stereo not drawn), the TGI was over 100 µM. `Cc1ccc2c(c1C)C(=O)C1(Cc3cc4c(cc3C1=O)CCC4)C2` (stereo not drawn) gave a TGI of over 100 µM. `C[C@@H]1CC[C@@]2(C)C(C(=O)O)=CCCC2[C@@]1(C)CC(=O)c1ccoc1` (stereo partly drawn) showed a TGI of over 25 µM. In the case of `O=C(CCc1cc(O)cc(O)c1)NCCc1cc(OCc2ccccc2)cc(OCc2ccccc2)c1`, the TGI is reported as 53.3 µM. For `c1ccc(C2=NC3OC2c2ccccc23)cc1` (stereo not drawn), the TGI was over 10 µM. `O=c1oc2ccc3ccccc3c2cc1-c1cn2ccsc2n1` gave a TGI of 46.8 µM. Compound `CCOC(=O)CSc1nc(N)c2c(-c3ccccc3)c3c(nc2n1)CCCC3` has a TGI of over 100 µM. `COC(=O)/C=C(/C=C1/C(C#N)=C(N)N(c2ccc(Cl)cc2)C1(C)/C(=C\C(=O)OC)C(=O)OC)C(=O)OC` (stereo not drawn) was tested, and the TGI was 30.8 µM. `Cc1ccccc1-c1nc2c(N)nc(N)nc2nc1N` showed a TGI of over 100 µM. In the case of `CCOC(=O)c1c(N2CCCC2)[nH]c(=O)c(C(c2ccc(OC)cc2)c2c(O)c(C(=O)OCC)c(N3CCCC3)[nH]c2=O)c1O`, the TGI is reported as over 100 µM. `CC1CC(N2CCOCC2)=Nc2ccccc2N1C` (stereo not drawn) was tested, and the TGI was over 100 µM. `CCOC1C=CC(=O)C(CO)O1` (stereo not drawn) showed a TGI of 29.6 µM. `CC(C)C(Br)CCC1=CCC(Br)(Br)C1` (stereo not drawn) showed a TGI of 12.2 µM. In the case of `Cc1c2cccc-2c2cc(O)c3ccccc3c2n1-c1ccc(N(C)C)cc1`, the TGI is reported as 53.6 µM. For `O=CC(I)=C(c1ccccc1)c1ccccc1`, the TGI was 19.9 µM. `c1c[nH]c(-c2cccc3nsnc23)c1` gave a TGI of over 100 µM. For `Cn1c2ccccc2c2ccc3c(c21)C(=O)c1ccc2c4ccccc4n(C)c2c1C3=O`, the TGI was over 100 µM. `COc1ccc(C)cc1N1C(=O)C2ON(Cc3ccc(CC(N)=O)cc3)C(c3c4ccccc4c(Cl)c4ccccc34)C2C1=O` (stereo not drawn) showed a TGI of over 100 µM. Compound `NS(=O)(=O)c1nnc(NC(=O)N(c2ccccc2)c2ccccc2)s1` has a TGI of over 100 µM. With `COC(=O)c1ccccc1C1CN=NC12Cc1c(ccc(C)c1C)C2=O` (stereo not drawn) the TGI was over 100 µM. `CN(C)CCN(c1ccccn1)c1ccccn1` showed a TGI of over 100 µM. `O=C(O)c1nc2ccc(C(F)(F)F)cc2[nH]c1=O` gave a TGI of over 100 µM. Compound `CN(CCN1CCCC1)C1CCc2cc(Cl)c(Cl)cc2C1` (stereo not drawn) has a TGI of 89 µM. Work on `COC(=O)/C=C(\C)CC/C=C(\C)CCC1OC1(C)C` (stereo not drawn) yielded a TGI of 28.4 µM. Work on `CC(C)NC(=O)OCc1c(COC(=O)NC(C)C)n(C)c2c1ccc1sccc12` yielded a TGI of over 100 µM. `O=C(CC(NC(=O)C(F)(F)F)C(=O)O)OCc1ccccc1` (stereo not drawn) was tested, and the TGI was over 100 µM. Work on `COc1cccc(C2c3cc4c(cc3OC(O)C2C)OCO4)c1OC` (stereo not drawn) yielded a TGI of 54 µM.

What follows are compounds tested on BT-549 breast (assay: NCI-60 cell line screen, 48 h).
Work on `O=C(ON=C1c2ccccc2C(Br)C(Br)c2ccccc21)c1ccccc1` (stereo not drawn) yielded a TGI of 35.7 µM. `CC(=O)c1ccc(Oc2c3ccccc3nc3ccccc23)cc1` gave a TGI of 27.1 µM. For `C[n+]1cc2cc(O)c(O)cc2c2ccc3cc(O)c(O)cc3c21`, the TGI was 9.93 µM. For `COc1ccc2c(c1)c1c(n2CCN2CCCCC2)-c2cccc(OC)c2CC1`, the TGI was 41.6 µM. Work on `COc1ccc2nc(NC(=O)/C(C#N)=C/c3ccccc3)sc2c1` yielded a TGI of over 100 µM. For `Cc1c(C)n(-c2ccccc2)c2nc(S(C)=O)nc(S(C)=O)c12` (stereo not drawn), the TGI was 4.13 µM. In the case of `CC1(C)CC(=O)C2=C(C1)C(c1ccccc1Cl)C1C(=O)CC(C)(C)CC1(O)O2` (stereo not drawn), the TGI is reported as over 100 µM. With `Cc1ccc2c(c1C)C(=O)C1(Cc3cc4c(cc3C1=O)CCC4)C2` (stereo not drawn) the TGI was over 100 µM. In the case of `C[C@@H]1CC[C@@]2(C)C(C(=O)O)=CCCC2[C@@]1(C)CC(=O)c1ccoc1` (stereo partly drawn), the TGI is reported as over 25 µM. `O=C(CCc1cc(O)cc(O)c1)NCCc1cc(OCc2ccccc2)cc(OCc2ccccc2)c1` was tested, and the TGI was 35.8 µM. With `c1ccc(C2=NC3OC2c2ccccc23)cc1` (stereo not drawn) the TGI was over 10 µM. Work on `O=c1oc2ccc3ccccc3c2cc1-c1cn2ccsc2n1` yielded a TGI of 32.6 µM. `CCOC(=O)CSc1nc(N)c2c(-c3ccccc3)c3c(nc2n1)CCCC3` was tested, and the TGI was over 100 µM. Work on `COC(=O)/C=C(/C=C1/C(C#N)=C(N)N(c2ccc(Cl)cc2)C1(C)/C(=C\C(=O)OC)C(=O)OC)C(=O)OC` (stereo not drawn) yielded a TGI of 30.2 µM. `Cc1ccccc1-c1nc2c(N)nc(N)nc2nc1N` showed a TGI of over 100 µM. Work on `CCOC(=O)c1c(N2CCCC2)[nH]c(=O)c(C(c2ccc(OC)cc2)c2c(O)c(C(=O)OCC)c(N3CCCC3)[nH]c2=O)c1O` yielded a TGI of over 100 µM. In the case of `CC1CC(N2CCOCC2)=Nc2ccccc2N1C` (stereo not drawn), the TGI is reported as over 100 µM. `CCOC1C=CC(=O)C(CO)O1` (stereo not drawn) showed a TGI of 26.1 µM. In the case of `CC(C)C(Br)CCC1=CCC(Br)(Br)C1` (stereo not drawn), the TGI is reported as 34.9 µM. `Cc1c2cccc-2c2cc(O)c3ccccc3c2n1-c1ccc(N(C)C)cc1` showed a TGI of 23.3 µM. Work on `O=CC(I)=C(c1ccccc1)c1ccccc1` yielded a TGI of 30 µM. Work on `c1c[nH]c(-c2cccc3nsnc23)c1` yielded a TGI of over 100 µM. In the case of `Cn1c2ccccc2c2ccc3c(c21)C(=O)c1ccc2c4ccccc4n(C)c2c1C3=O`, the TGI is reported as over 100 µM. For `COc1ccc(C)cc1N1C(=O)C2ON(Cc3ccc(CC(N)=O)cc3)C(c3c4ccccc4c(Cl)c4ccccc34)C2C1=O` (stereo not drawn), the TGI was 74.5 µM. `NS(=O)(=O)c1nnc(NC(=O)N(c2ccccc2)c2ccccc2)s1` gave a TGI of 42.2 µM. `COC(=O)c1ccccc1C1CN=NC12Cc1c(ccc(C)c1C)C2=O` (stereo not drawn) was tested, and the TGI was over 100 µM. Compound `CN(C)CCN(c1ccccn1)c1ccccn1` has a TGI of over 100 µM. With `O=C(O)c1nc2ccc(C(F)(F)F)cc2[nH]c1=O` the TGI was over 100 µM. `CN(CCN1CCCC1)C1CCc2cc(Cl)c(Cl)cc2C1` (stereo not drawn) showed a TGI of 28.5 µM. Work on `COC(=O)/C=C(\C)CC/C=C(\C)CCC1OC1(C)C` (stereo not drawn) yielded a TGI of 21.8 µM. Compound `CC(C)NC(=O)OCc1c(COC(=O)NC(C)C)n(C)c2c1ccc1sccc12` has a TGI of 10.7 µM. With `O=C(CC(NC(=O)C(F)(F)F)C(=O)O)OCc1ccccc1` (stereo not drawn) the TGI was over 100 µM. In the case of `COc1cccc(C2c3cc4c(cc3OC(O)C2C)OCO4)c1OC` (stereo not drawn), the TGI is reported as 65.6 µM.
